From patent US9877999B2, “Methods for treating metastatic stage prostate cancer” (Ferring International SA, priority 2008, dated 2018)
Several values for one entry are separate records, joined by “and”; a condition that tells them apart may be missing. Identical values can stand only once. Like-named read-outs stand apart in the source and are kept apart here. Square brackets hold non-standard residues; d marks the D form. Peptide text beside a SMILES is read from it. * marks the point of attachment. dPhe(4-NHCONH2) = NC(=O)Nc1ccc(C[C@@H](N)C(=O)O)cc1; Dihydroorotyl(S) = O=C1C[C@@H](C(=O)*)NC(=O)N1; dPhe(4-Cl) = N[C@H](Cc1ccc(Cl)cc1)C(=O)O; Phe(4-NH2) = Nc1ccc(C[C@H](N)C(=O)O)cc1; d2Nal = N[C@H](Cc1ccc2ccccc2c1)C(=O)O; Lys(iPr) = CC(C)NCCCC[C@H](N)C(=O)O; d3Pal = N[C@H](Cc1cccnc1)C(=O)O

What was measured:
[1] = human, in vivo
[2] = system: human CYP450 (cytochrome P450) system
[3] = system: serum alkaline phosphatase (S-ALP); assay: S-ALP analysis in prostate cancer patients (clinical study CS21); assay type: in vivo, human; details: Degarelix 240/80 mg
Method: Patients with histologically confirmed adenocarcinoma of the prostate (all stages), for whom androgen deprivation therapy was indicated were recruited. Baseline characteristics were well balanced between groups. Approximately half of patients had locally advanced (29.2%) or metastatic (20.5%) disease at baseline. […] Patients receiving leuprolide could also receive bicalutamide for clinical flare protection. The S-ALP levels were measured in each patient at various time points, by taking a blood sample and analyzing for S-ALP. S-ALP levels were measured using a standardized colorimetric assay based on the p-nitrophenyl phosphate AMP buffer method. The normal range for S-ALP is 44-147 IU/L. The S-ALP values in non-metastatic patients serve as controls. An ANOVA analysis with treatment and day as factors and baseline value as covariate was used to determine between treatment differences at Day 364. A repeated measures analysis (incorporating all time points from Day 112) with treatment and day as factors and baseline value as covariate was used to assess between treatment differences from Day 112 to Day 364.

clinical = details: male, human, in vivo, sc, 240 mg
[4] = system: prostate-specific antigen (PSA); assay: PSA failure in prostate cancer patients (clinical study CS21); assay type: in vivo, human; details: for proportion of PSA failures: degarelix 240/80 mg
Method: For this analysis, PSA failure (a secondary endpoint) was defined as two consecutive increases in PSA of 50% and 5 ng/mL compared with nadir. The time to PSA failure was defined as the number of days from first dosing to where an increase in serum PSA of 50% from nadir and 5 ng/mL, measured on two consecutive occasions at least two weeks apart, was noted. The second occasion was the time point of meeting the criterion. PSA failure rates were also analyzed by disease stage and baseline PSA level.
(§1) The secondary efficacy endpoints were: the proportion of patients with testosterone surge during the first 2 weeks of treatment; the proportion of patients with testosterone level ≦0.5 ng/mL at day 3; the percentage change in PSA from baseline to day 28; the probability of testosterone ≦0.5 ng/mL from day 56 through day 364; the levels of serum testosterone, LH, FSH and PSA over time through the study; the time to PSA failure, defined as two consecutive increases of 50%, and at least 5 ng/mL as compared to nadir; degarelix concentration over the first month and trough levels at day 308 and 336; the frequency and size of testosterone increases at day 255 and/or 259 compared to the testosterone level at day 252; the quality of life on days 0, 28, 84, 168 and end of study visit; the frequency and intensity of hot flushes experienced (scored daily from study start until end of study visit). In addition, two further secondary endpoints were added: the probability of sufficient testosterone response from day 28 through day 364 (a patient was considered to have insufficient testosterone response if they had one testosterone value >1.0 ng/mL or two consecutive testosterone values >0.5 ng/mL at day 28 onwards); and the percentage change in PSA from baseline to day 14.
The secondary endpoints, probability of testosterone ≦0.5 ng/mL from day 56 through day 364, time to PSA failure, and probability of sufficient testosterone response from day 28 through day 364 were analyzed by the Kaplan-Meier method.

testosterone = assay type: in vivo, human; details: for overall proportion of patients with testosterone ≦0.5 ng/mL from day 28 to day 364: observed cases analysis
Method: The study also evaluated the pharmacokinetics of the degarelix dosing regimens investigated. Finally, the study examined the effects of using the degarelix treatment on patients suffering from different stages of cancer. […] The primary efficacy endpoint was the probability of testosterone levels remaining ≦0.5 ng/mL from day 28 through day 364. […] The primary efficacy endpoint was analyzed for both the ITT and PP analysis sets, with the ITT analysis set considered primary. The primary efficacy endpoint was analyzed using the Kaplan Meier method. For each of the three treatment groups, testosterone response rates with 95% confidence interval (CI) were calculated by log-log transformation of survivor function. […] All secondary efficacy endpoints were analyzed for both the ITT and PP analysis sets, unless otherwise stated. […] The percentage change in PSA from baseline to day 28 endpoint was analyzed by a Wilcoxon test.

in vitro = details: plasma
[5] = system: follicle stimulating hormone (FSH); assay: Serum FSH levels over time (clinical study CS21); assay type: in vivo, human; details: by day 7; degarelix
Method: (§2) The study also investigated whether degarelix is safe and effective with respect to achieving and maintaining testosterone suppression to castrate levels, evaluated as the proportion of patients with testosterone suppression ≦0.5 ng/mL during 12 months of treatment. […] The study also evaluated the pharmacokinetics of the degarelix dosing regimens investigated. Finally, the study examined the effects of using the degarelix treatment on patients suffering from different stages of cancer.
(§3) Patients in two treatment groups received a degarelix starting dose of 240 mg at a concentration of 40 mg/mL (240@40) on day 0 administered as two equivalent subcutaneous (s.c.) injections of 120 mg each. Thereafter, patients received 12 additional single s.c. degarelix doses of either 80 mg at a concentration of 20 mg/mL (80@20: degarelix 240/80 mg group) or 160 mg at a concentration of 40 mg/mL (160@40: degarelix 240/160 mg group) administered s.c. every 28 days.
as §1

luteinizing hormone (LH) = assay: Serum LH levels over time (clinical study CS21); assay type: in vivo, human; details: day 1; degarelix, ITT analysis set
Method: as §2, §3, §1

With `CC(=O)N[C@H](Cc1ccc2ccccc2c1)C(=O)N[C@H](Cc1ccc(Cl)cc1)C(=O)N[C@H](Cc1cccnc1)C(=O)N[C@@H](CO)C(=O)N[C@@H](Cc1ccc(NC(=O)[C@@H]2CC(=O)NC(=O)N2)cc1)C(=O)N[C@H](Cc1ccc(NC(N)=O)cc1)C(=O)N[C@@H](CC(C)C)C(=O)N[C@@H](CCCCNC(C)C)C(=O)N1CCC[C@H]1C(=O)N[C@H](C)C(N)=O` [degarelix, D-Alaninamide, N-acetyl-3-(2-naphthalenyl)-D-alanyl-4-chloro-D-phenylalanyl-3-(3-pyridinyl)-D-alanyl-L-seryl-4-[[[(4S)-hexahydro-2,6-dioxo-4-pyrimidinyl]carbonyl]amino]-L phenylalanyl-4-[(aminocarbonyl)amino]-D-phenylalanyl-L leucyl-N6-(1-methylethyl)-L-lysyl-L-prolyl] (Ac-[d2Nal][dPhe(4-Cl)][d3Pal]S[Phe(4-NH2)](Dihydroorotyl(S))[dPhe(4-NHCONH2)]L[Lys(iPr)]P[dA]-NH2) the tolerability [1] was “generally well tolerated”, the “substrate for the human CYP450 system” value [2] was “not a substrate” and the “S-ALP mean change from baseline” value ([3]; Localized, Day 112) was “+5 IU/L”. The “S-ALP mean change from baseline” value ([3]; Localized, Day 224) was “+8 IU/L”, the “S-ALP mean change from baseline” value ([3]; Localized, Day 364) was “+10 IU/L” and the “S-ALP mean change from baseline” value ([3]; Locally advanced, Day 112) was “+6 IU/L”. The “S-ALP mean change from baseline” value ([3]; Locally advanced, Day 224) was “+7 IU/L”, the “S-ALP mean change from baseline” value ([3]; Locally advanced, Day 364) was “+10 IU/L” and the “S-ALP mean change from baseline” value ([3]; Metastatic (Hb < 130 g/L), Day 112) was −160 IU/L. For the same compound, the “S-ALP mean change from baseline” value ([3]; Metastatic (Hb < 130 g/L), Day 224) was −200 IU/L, the “S-ALP mean change from baseline” value ([3]; Metastatic (Hb < 130 g/L), Day 364) was −230 IU/L and the “S-ALP mean change from baseline” value ([3]; Metastatic, Day 112) was −90 IU/L. For the same compound, the “S-ALP mean change from baseline” value ([3]; Metastatic, Day 224) was −100 IU/L, the “S-ALP mean change from baseline” value ([3]; Metastatic, Day 364) was −90 IU/L and the “S-ALP mean change from baseline” value ([3]; baseline PSA 10-20 ng/mL, Day 112) was “+5 IU/L”. For the same compound, the “S-ALP mean change from baseline” value ([3]; baseline PSA 10-20 ng/mL, Day 224) was “+8 IU/L”, the “S-ALP mean change from baseline” value ([3]; baseline PSA 10-20 ng/mL, Day 364) was “+13 IU/L” and the “S-ALP mean change from baseline” value ([3]; baseline PSA 20-50 ng/mL, Day 112) was “+5 IU/L”. The “S-ALP mean change from baseline” value ([3]; baseline PSA 20-50 ng/mL, Day 224) was “+7.5 IU/L”, the “S-ALP mean change from baseline” value ([3]; baseline PSA 20-50 ng/mL, Day 364) was “+4.5 IU/L” and the “S-ALP mean change from baseline” value ([3]; baseline PSA < 10 ng/mL, Day 112) was “+4.5 IU/L”. The “S-ALP mean change from baseline” value ([3]; baseline PSA < 10 ng/mL, Day 224) was “+5.5 IU/L”, the “S-ALP mean change from baseline” value ([3]; baseline PSA < 10 ng/mL, Day 364) was “+7 IU/L” and the “S-ALP mean change from baseline” value ([3]; baseline PSA > 50 ng/mL, Day 112) was −60 IU/L. The “S-ALP mean change from baseline” value ([3]; baseline PSA > 50 ng/mL, Day 224) was −70 IU/L, the “S-ALP mean change from baseline” value ([3]; baseline PSA > 50 ng/mL, Day 364) was −60 IU/L and the Cmax (clinical) was 53.4 ng/mL. The Tmax (clinical) was 1.4 days, the half-life (clinical; T½) was 43 days and the half-life (clinical; median terminal half-life) was about 43 days. The “probability of completing the study without experiencing PSA failure by day 364” value ([4]; degarelix 240/80 mg group) was 91.1% and 91.2%, the “proportion of PSA failures” value ([4]; patients with baseline PSA>50 ng/mL) was 29.2% and the “proportion of PSA failures” value ([4]; patients with metastatic disease at baseline) was 21.6%. For the same compound, the median testosterone level (testosterone; 240 mg then monthly 80 mg, after one year) was 0.087 ng/mL, the “patients with sustained testosterone suppression” value (testosterone; 240 mg then monthly 80 mg, at least one year) was 97% and the “Kaplan-Meier estimate of the probability of testosterone ≦0.5 ng/mL from day 28 to day 364” value (testosterone; degarelix 240/80 mg group) was 97.2%. For the same compound, the “Kaplan-Meier estimate of the probability of testosterone ≦0.5 ng/mL from day 28 to day 364” value (testosterone; degarelix 240/160 mg group) was 98.3%, the “proportion of patients with testosterone surge (increase 15% from baseline)” value (testosterone; human, in vivo) was 0.2% and the “overall proportion of patients with testosterone ≦0.5 ng/mL from day 28 to day 364” value (testosterone; degarelix 240/80 mg group) was 97.0%. For the same compound, the “overall proportion of patients with testosterone ≦0.5 ng/mL from day 28 to day 364” value (testosterone; degarelix 240/160 mg group) was 98.2%, the “patients exhibiting testosterone suppression on day 3” value (testosterone; patients receiving degarelix) was 96% and the fraction unbound (in vitro) was about 0.1. For the same compound, the “decrease of median FSH from baseline” value [5] was over 80%, the “median FSH level” value [5] was at most 1.5 IU/L and the “decrease of median LH from baseline” value (luteinizing hormone (LH)) was “approximately 88%”. The “median LH level” value (luteinizing hormone (LH)) was under 0.7 IU/L.
